US12637472B2, “Benzimidazole heteroatom-containing spiro compound and medicinal use thereof” (Changzhi University, priority 2023, dated 2026)

How the values were obtained:
Format in all cases: cell-based
[1] = test system: Human liver tumor cells HepG2; assay: MTT in vitro cell proliferation inhibition experiment, HepG2; settings: Homo sapiens, MTT method, 48 h contact between compound and cell, read-out: Antiproliferative activity (IC50, μM) HepG2
Method: (§1) Human liver tumor cells HepG2, human colon cancer cells HCT116, and human gastric adenocarcinoma cells AGS were purchased from the Institute of Basic Medical Sciences, Chinese Academy of Medical Sciences. The cells each were preserved and passaged in the laboratory of the present disclosure according to respective cultivation data. Each cell line was routinely inoculated in a 50 mL cell culture flask, and cultivated with a 10% fetal bovine serum-containing DMEM/IRP-1640 medium at 37° C., 5% CO2, and 100% humidity, where the medium was changed daily. When growing to a confluency of 80% to 90%, cells were digested with a mixture of trypsin and EDTA and passaged according to 1:3.
(§2) An in vitro cell activity and proliferation inhibition experiment was conducted by an MTT method to investigate an impact of a target compound on a survival activity of each cell. Cells at a logarithmic growth phase were inoculated at 5×10^3 cells (100 μL)/well in a 96-well culture plate and cultivated for 24 h, and then compound solutions with different concentrations prepared in advance were added (100 μL) to the plate. At least 3 replicate wells were set for each concentration. A solvent control group without a compound and a blank control group without a cell were set. Edge wells each were filled with 200 μL of sterilized water. […] A liquid in each well was completely removed carefully, 150 μL of DMSO was added to each well, the plate was gently shaken on a microshaker for 10 min to make a purple crystal fully dissolved, and then an absorbance value was determined at 570 nm by a microplate reader. With a cell viability of the solvent control group without a compound as 100%, a cell survival rate was calculated as follows: a cell survival rate=(an absorbance value of a compound group−an absorbance value of the blank control group)/(an absorbance value of the control group−an absorbance value of the blank control group)×100%. A half-maximal inhibitory concentration (IC50) of a compound for a cell was calculated by the Graphpad Prism 5 software.

[2] = test system: human colon cancer cells HCT116; assay: MTT in vitro cell proliferation inhibition experiment, HCT116; settings: Homo sapiens, HCT-116, MTT method, 48 h contact between compound and cell, read-out: Antiproliferative activity (IC50, μM) HCT116
Method: as §1, §2

[3] = test system: human gastric adenocarcinoma cells AGS; assay: MTT in vitro cell proliferation inhibition experiment, AGS; settings: Homo sapiens, MTT method, 48 h contact between compound and cell, read-out: Antiproliferative activity (IC50, μM) AGS
Method: as §1, §2

Structure (SMILES)	IC50 [1] [µM]	IC50 [2] [µM]	IC50 [3] [µM]
CC(C)C1NC2(C(=O)c3ccccc3C2=O)C(C(=O)c2nc3ccccc3[nH]2)C1C1CCCCC1 (stereo not drawn) [Compound 25, 3-(1H-benzimidazol-2-carbonyl)-4-cyclohexyl-5-isopropylspiro[inden-2,2′-pyrrolidine]-1,3-dione]	9.67	5.67	12.4
CC(C)C1NC2(C(=O)c3ccccc3C2=O)C(C(=O)c2nc3ccccc3[nH]2)C1c1ccc(Cl)c(F)c1 (stereo not drawn) [Compound 26, 3-(1H-benzimidazol-2-carbonyl)-4-(3-fluoro-4-chlorophenyl)-5-isopropylspiro[inden-2,2′-pyrrolidine]-1,3-dione]	> 100	79	60
CC(C)C1NC2(C(=O)c3ccccc3C2=O)C(C(=O)c2nc3ccccc3[nH]2)C1c1ccc(Cl)cc1 (stereo not drawn) [Compound 27, 3-(1H-benzimidazol-2-carbonyl)-4-(4-chlorophenyl)-5-isopropylspiro[inden-2,2′-pyrrolidine]-1,3-dione]	> 100	> 100	90.1
Cc1ccc(C2C(C(C)C)NC3(C(=O)c4ccccc4C3=O)C2C(=O)c2nc3ccccc3[nH]2)cc1 (stereo not drawn) [Compound 28, 3-(1H-benzimidazol-2-carbonyl)-5-isopropyl-4-p-tolylspiro[inden-2,2′-pyrrolidine]-1,3-dione]	3.45	4.56	2.98
CC(C)C1NC2(C(=O)c3ccccc3C2=O)C(C(=O)c2nc3ccccc3[nH]2)C1c1cccc(Br)c1 (stereo not drawn) [Compound 30, 3-(1H-benzimidazol-2-carbonyl)-4-(3-bromophenyl)-5-isopropylspiro[inden-2,2′-pyrrolidine]-1,3-dione]	2.34	3.42	2.98
CCOc1ccc(C2C(C(C)C)NC3(C(=O)c4ccccc4C3=O)C2C(=O)c2nc3ccccc3[nH]2)cc1 (stereo not drawn) [Compound 31, 3-(1H-benzimidazol-2-carbonyl)-4-(4-ethoxyphenyl)-5-isopropylspiro[inden-2,2′-pyrrolidine]-1,3-dione]	44.6	56.4	59.9
CC(C)C1NC2(C(=O)c3ccccc3C2=O)C(C(=O)c2nc3ccccc3[nH]2)C1c1ccc(Br)cc1 (stereo not drawn) [Compound 32, 3-(1H-benzimidazol-2-carbonyl)-4-(4-bromophenyl)-5-isopropylspiro[inden-2,2′-pyrrolidine]-1,3-dione]	66.7	> 100	> 100
CSCCC1NC2(C(=O)c3ccccc3C2=O)C(C(=O)c2nc3ccccc3[nH]2)C1C1CCCCC1 (stereo not drawn) [Compound 33, 3-(1H-benzimidazol-2-carbonyl)-4-cyclohexyl-5-(methylthio)ethylspiro[inden-2,2′-pyrrolidine]-1,3-dione]	12.5	15.5	9.77
CSCCC1NC2(C(=O)c3ccccc3C2=O)C(C(=O)c2nc3ccccc3[nH]2)C1c1ccc(Cl)c(F)c1 (stereo not drawn) [Compound 34, 3-(1H-benzimidazol-2-carbonyl)-4-(4-chloro-3-fluorophenyl)-5-(2-methylthio)ethylspiro[inden-2,2′-pyrrolidine]-1,3-dione]	36.6	44.7	39.7
CSCCC1NC2(C(=O)c3ccccc3C2=O)C(C(=O)c2nc3ccccc3[nH]2)C1c1ccc(Cl)cc1 (stereo not drawn) [Compound 35, 3-(1H-benzimidazol-2-carbonyl)-4-(4-chlorophenyl)-5-(2-methylthio)ethylspiro[inden-2,2′-pyrrolidine]-1,3-dione]	40.5	42.7	45.8
CSCCC1NC2(C(=O)c3ccccc3C2=O)C(C(=O)c2nc3ccccc3[nH]2)C1c1cccc(Br)c1 (stereo not drawn) [Compound 38, 3-(1H-benzimidazol-2-carbonyl)-4-(3-bromophenyl)-5-(2-methylthio)ethylspiro[inden-2,2′-pyrrolidine]-1,3-dione]	49.8	47.4	40.9
CCOc1ccc(C2C(CCSC)NC3(C(=O)c4ccccc4C3=O)C2C(=O)c2nc3ccccc3[nH]2)cc1 (stereo not drawn) [Compound 39, 3-(1H-benzimidazol-2-carbonyl)-4-(4-ethoxyphenyl)-5-(2-methylthio)ethylspiro[inden-2,2′-pyrrolidine]-1,3-dione]	> 100	> 100	> 100
O=C(c1nc2ccccc2[nH]1)C1C(C2CCCCC2)C(c2c[nH]c3ccccc23)NC12C(=O)c1ccccc1C2=O (stereo not drawn) [Compound 41, 3-(1H-benzimidazol-2-carbonyl)-4-cyclohexyl-5-(1H-indol-3-yl)spiro[inden-2,2′-pyrrolidine]-1,3-dione]	89.6	77.4	82.3
O=C(c1nc2ccccc2[nH]1)C1C(c2ccc(Cl)c(F)c2)C(c2c[nH]c3ccccc23)NC12C(=O)c1ccccc1C2=O (stereo not drawn) [Compound 42, 3-(1H-benzimidazol-2-carbonyl)-4-(4-chloro-3-fluorophenyl)-5-(1H-indol-3-yl)spiro[inden-2,2′-pyrrolidine]-1,3-dione]	3.45	4.78	3.01

Other lines, results leading:

IC50 [1] [µM]	IC50 [2] [µM]	IC50 [3] [µM]	Structure (SMILES)
67.8	45.8	3.67	CCC(C)C1NC2(C(=O)c3ccccc3C2=O)C(C(=O)c2nc3ccccc3[nH]2)C1c1ccc(Br)cc1 (stereo not drawn) [Compound 24, 3-(1H-benzimidazol-2-carbonyl)-4-(4-bromophenyl)-5-sec-butylspiro[inden-2,2′-pyrrolidine]-1,3-dione]
44.6	53.2	67.1	CCOc1ccc(C2C(C(C)C)NC3(C(=O)c4ccccc4C3=O)C2C(=O)c2nc3ccccc3[nH]2)cc1OCC (stereo not drawn) [Compound 29, 3-(1H-benzimidazol-2-carbonyl)-3,4-diethoxyphenyl-5-isopropylspiro[inden-2,2′-pyrrolidine]-1,3-dione]
13.5	15.5	9.78	CSCCC1NC2(C(=O)c3ccccc3C2=O)C(C(=O)c2nc3ccccc3[nH]2)C1c1ccc(C)cc1 (stereo not drawn) [Compound 36, 3-(1H-benzimidazol-2-carbonyl)-5-(2-methylthio)ethyl-4-p-tolylspiro[inden-2,2′-pyrrolidine]-1,3-dione]
> 100	> 100	78.6	CCOc1ccc(C2C(CCSC)NC3(C(=O)c4ccccc4C3=O)C2C(=O)c2nc3ccccc3[nH]2)cc1OCC (stereo not drawn) [Compound 37, 3-(1H-benzimidazol-2-carbonyl)-3,4-diethoxyphenyl-5-(2-methylthio)ethylspiro[inden-2,2′-pyrrolidine]-1,3-dione]
9.56	56.7	66.2	CSCCC1NC2(C(=O)c3ccccc3C2=O)C(C(=O)c2nc3ccccc3[nH]2)C1c1ccc(Br)cc1 (stereo not drawn) [Compound 40, 3-(1H-benzimidazol-2-carbonyl)-4-(4-bromophenyl)-5-(2-methylthio)ethylspiro[inden-2,2′-pyrrolidine]-1,3-dione]
34.6	55.5	39.7	O=C(c1nc2ccccc2[nH]1)C1C(c2ccc(Cl)cc2)C(c2c[nH]c3ccccc23)NC12C(=O)c1ccccc1C2=O (stereo not drawn) [Compound 43, 3-(1H-benzimidazol-2-carbonyl)-4-(4-chlorophenyl)-5-(1H-indol-3-yl)spiro[inden-2,2′-pyrrolidine]-1,3-dione]
